# Key:
# [1] = test system: senescent fibroblasts (SnCs), IMR90 cells; assay: Senolytic activity: killing senescent (irradiated) IMR90 fibroblasts, CellTiter-Glo; format: cell-based, human; conditions: for EC50: killing senescent (irradiated) fibroblasts in culture, read-out: Best SnCs EC50; for SI (specificity for senescent cells): senescent vs non-senescent cells of the same tissue type; for senolytic potency (EC50), in words: killing senescent cells
# Excerpt: Human fibroblast IMR90 cells can be obtained from the American Type Culture Collection (ATCC®) with the designation CCL-186. The cells are maintained at <75% confluency in DMEM containing FBS and Pen/Strep in an atmosphere of 3% O2, 10% CO2, and 95% humidity. The cells are divided into three groups: irradiated cells (cultured for 14 days after irradiation prior to use), proliferating normal cells (cultured at low density for one day prior to use), and quiescent cells (cultured at high density for four day prior to use).
# On day 0, the irradiated cells are prepared as follows. IMR90 cells are washed, placed in T175 flasks at a density of 50,000 cells per mL, and irradiated at 10-15 Gy. Following irradiation, the cells are plated at […] in 96-well plates. On days 1, 3, 6, 10, and 13, the medium in each well is aspirated and replaced with fresh medium.
# On day 10, the quiescent healthy cells are prepared as follows. IMR90 cells are washed, covered with 3 mL of TrypLE trypsin-containing reagent (Thermofisher Scientific, Waltham, Mass.) and cultured for 5 min until the cells have rounded up and begin to detach from the plate. Cells are dispersed, counted, and prepared in medium at a concentration of 50,000 cells per mL. 100 µL of the cells is plated in each well of a 96-well plate. Medium is changed on day 13.
# On day 13, the proliferating healthy cell population is prepared as follows. Healthy IMR90 cells are washed, covered with 3 mL of TrypLE and cultured for 5 minutes until the cells have rounded up and begin to detach from the plate. Cells are dispersed, counted, and prepared in medium at a concentration of 25,000 cells per mL. 100 µL of the cells is plated in each well of a 96-well plate.
# On day 14, test senolytic agents are combined with the cells as follows. A DMSO dilution series of each test compound is prepared at 200 times the final desired concentration in a 96-well PCR plate. Immediately before use, the DMSO stocks are diluted 1:200 into prewarmed complete medium. Medium is aspirated from the cells in each well, and 100 µL/well of the compound containing medium is added.
# The test senolytic agents are cultured with the cells for 6 days, replacing the culture medium with fresh medium and the same compound concentration on day 17. Bcl-2 inhibitors such as those tested in the examples that follow are cultured with the cells for 3 days. The assay system uses the properties of a thermostable luciferase to enable reaction conditions that generate a stable luminescent signal while simultaneously inhibiting endogenous ATPase released during cell lysis. At the end of the culture period, 100 µL of CellTiter-Glo@ reagent (Promega Corp., Madison, Wis.) is added to each of the wells. The cell plates are placed for 30 seconds on an orbital shaker, and luminescence is measured.
# Furthermore, even if the compound is potent, it would not be suitable for use as a therapeutic unless it preferentially kills senescent cells with a high degree of selectivity. Accordingly, compounds in the library showing high Bcl binding affinity were further screened for their ability to kill irradiated fibroblasts, in comparison with replicating fibroblasts or fibroblasts that were quiescent (due to confluence) but not senescent.
# [2] = target: T1, Bcl-w (Homo sapiens, UniProt Q92843); assay: Bcl inhibition homogeneous (AlphaScreen) binding assay, Bcl-w; conditions: read-out: Binding Affinities (Ki ± SD) Bcl-w
# T1 construct: purchased Sigma-Aldrich Co., St. Louis, Mo
# T1 sequence (Q92843 1-193): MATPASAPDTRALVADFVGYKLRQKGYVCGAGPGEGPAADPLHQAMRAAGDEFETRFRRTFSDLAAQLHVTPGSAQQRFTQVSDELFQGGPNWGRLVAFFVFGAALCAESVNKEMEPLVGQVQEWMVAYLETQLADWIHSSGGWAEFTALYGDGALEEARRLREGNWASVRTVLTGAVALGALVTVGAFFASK
# Excerpt: (§1) This assay uses a homogenous assay technology based on oxygen channeling that is marketed by PerkinElmer Inc., Waltham, Mass.: see Eglen et al., Current Chemical Genomics, 2008, 1, 2-10. The test compound is combined with the target Bcl protein and a peptide representing the corresponding cognate ligand, labeled with biotin. The mixture is then combined with streptavidin bearing luminescent donor beads and luminescent acceptor beads, which proportionally reduces luminescence if the compound has inhibited the peptide from binding to the Bcl protein.
# (§2) Bcl-2, Bcl-xL and Bcl-W are available from Sigma-Aldrich Co., St. Louis, Mo. Biotinylated BIM peptide (ligand for Bcl-2) and BAD peptide (ligand for Bcl-xL) are described in pre-grant publication US 2016/0038503 A1. AlphaScreen® Streptavidin donor beads and Anti-6×His AlphaLISA® acceptor beads are available from PerkinElmer.
# (§3) To conduct the assay, a 1:4 dilution series of the compound is prepared in DMSO, and then diluted in assay buffer. In a 96-well PCR plate, the following are combined: 10 μL peptide, 10 μL test compound, and 10 μL BCL protein. The assay plate is incubated in the dark at room temperature for 24 h. The next day, donor beads and acceptor beads are combined, and […] is added to each well. After incubating in the dark for 30 minute, luminescence is measured using a plate reader, and the affinity or degree of inhibition by each test compound is determined.
# (§4) The chosen compounds were further assayed to quantitatively determine the actual affinity for Bcl-xL, Bcl-2, and Bcl-w with a view to identifying candidate senolytic agents for use in treating age related conditions. FIGS. 2A, 2B, and 2C show the results of the binding assay, with those compounds towards the left of each graph having the highest affinity.
# [3] = target: T2, Bcl-xL (Homo sapiens, UniProt Q07817); assay: Bcl inhibition homogeneous (AlphaScreen) binding assay, Bcl-xL; conditions: read-out: Binding Affinities (Ki ± SD) Bcl-xL
# T2 construct: purchased Sigma-Aldrich Co., St. Louis, Mo
# Excerpt: as §1, §2, §3, §4
# [4] = target: T3, Bcl-2 (Homo sapiens, UniProt P10415); assay: Bcl inhibition homogeneous (AlphaScreen) binding assay, Bcl-2; conditions: read-out: Binding Affinities (Ki ± SD) Bcl-2
# T3 construct: purchased Sigma-Aldrich Co., St. Louis, Mo
# Excerpt: as §1, §2, §3, §4
# [5] = target: Bcl isoforms; assay: Binding affinity for the Bcl isoforms; conditions: Bcl-xL, Bcl-2, Bcl-w
# Excerpt: as §1, §2, §3, §4
# T3 sequence (P10415 whole entry, species assumed): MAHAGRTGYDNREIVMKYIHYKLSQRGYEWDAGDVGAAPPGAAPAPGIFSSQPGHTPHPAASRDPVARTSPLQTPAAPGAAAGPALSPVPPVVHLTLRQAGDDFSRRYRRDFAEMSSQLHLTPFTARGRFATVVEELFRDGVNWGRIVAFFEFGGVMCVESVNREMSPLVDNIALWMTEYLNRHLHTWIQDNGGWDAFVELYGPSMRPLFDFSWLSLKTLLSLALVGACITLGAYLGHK
# T2 sequence (Q07817 whole entry, species assumed): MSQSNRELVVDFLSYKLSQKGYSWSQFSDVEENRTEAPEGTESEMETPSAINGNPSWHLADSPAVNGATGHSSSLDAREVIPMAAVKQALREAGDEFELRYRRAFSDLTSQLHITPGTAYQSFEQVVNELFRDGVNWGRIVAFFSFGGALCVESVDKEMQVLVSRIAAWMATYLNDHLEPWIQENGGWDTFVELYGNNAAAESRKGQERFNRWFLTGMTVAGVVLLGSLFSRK
Ki [2],Ki [3],Ki [4],"binding affinities (Ki) for the Bcl isoforms, in words [5]",Compound,EC50 [1],SI (specificity for senescent cells) [1],"senolytic potency (EC50), in words [1]"
0.66 nM,0.0453 nM,3.33 nM,,CCn1c(C)c(C(=O)O)c(-c2cccc(N3CCN(c4ccc(NS(=O)(=O)c5ccc(N[C@H](CCN6CCC(O)CC6)CSc6ccccc6)c(S(=O)(=O)C(F)(F)F)c5)cc4)CC3)c2)c1-c1ccc(Cl)cc1 [BM-957],300 nM,11.7,
0.538 nM,0.0574 nM,3.39 nM,,Cc1c(C(=O)O)c(-c2cccc(N3CCN(c4ccc(NS(=O)(=O)c5ccc(N[C@H](CCN6CCC(O)CC6)CSc6ccccc6)c(S(=O)(=O)C(F)(F)F)c5)cc4)CC3)c2)c(-c2ccc(Cl)cc2)n1C(C)C [BM-962],200 nM,18.5,
0.161 nM,0.00573 nM,0.179 nM,nanomole to picomole range,CCn1c(C)c(C(=O)NS(C)(=O)=O)c(-c2cccc(N3CCN(c4ccc(NS(=O)(=O)c5ccc(N[C@H](CCN(C)C)CSc6ccccc6)c([N+](=O)[O-])c5)cc4)CC3)c2)c1-c1ccc(Cl)cc1 [BM-1075],300 nM,15.3,
,,,,CCn1c(C)c(S(C)(=O)=O)c(-c2cc(F)cc(N3CCN(c4ccc(NS(=O)(=O)c5ccc(N[C@H](CCN6CCC(O)CC6)CSc6ccccc6)c(S(=O)(=O)C(F)(F)F)c5)cc4)CC3)c2)c1-c1ccc(F)cc1 [BM-1192],50 nM,60.0,
0.175 nM,0.149 nM,0.667 nM,nanomole to picomole range,Cc1c(S(C)(=O)=O)c(-c2cc(F)cc(N3CCN(c4ccc(NS(=O)(=O)c5ccc(N[C@H](CCN6CCC(O)CC6)CSc6ccccc6)c(S(=O)(=O)C(F)(F)F)c5)cc4)CC3)c2)c(-c2ccc(F)cc2)n1C(C)C [BM-1195],6 nM,128.7,potent in the nanomole range
0.292 nM,0.295 nM,0.448 nM,nanomole to picomole range,Cc1c(S(C)(=O)=O)c(-c2cc(F)cc(N3CCN(c4ccc(NS(=O)(=O)c5ccc(N[C@H](CCN6CCC(O)CC6)CSc6ccccc6)c(S(=O)(=O)C(F)(F)F)c5)cc4)CC3)c2)c(-c2ccc(Cl)cc2)n1C(C)C [BM-1197],5 nM,366.7,potent in the nanomole range
0.357 nM,0.135 nM,0.451 nM,nanomole to picomole range,Cc1c(S(C)(=O)=O)c(-c2cc(F)cc(N3CCN(c4ccc(NS(=O)(=O)c5ccc(N[C@H](CCN6CCC(C(=O)O)CC6)CSc6ccccc6)c(S(=O)(=O)C(F)(F)F)c5)cc4)CC3)c2)c(-c2ccc(Cl)cc2)n1C(C)C [BM-1244],300 nM,66.7,

# Source: patent US20200338094A1, “Use of a Heterocyclic Bcl-xL Inhibitor and Related Analogs for Removing Senescent Cells in the Treatment of Eye Diseases and Other Age-Related Conditions” (Unity Biotechnology, Inc., priority 2015, published 2020)
